Laboratory results as given in patent publication US9012493B2, “1-heterodiene derivative and pest control agent” (Nippon Soda Co., Ltd., priority 2009, dated 2015).

Tests used:
Assay type in all cases: in vivo
[1] = test system: Rice Armyworm (Mythimna Separata); assay: Efficacy test against rice armyworm, corn leaf dip; conditions: 125 ppm, emulsifiable concentrate diluted with water, corn leaves immersed, second instar larvae, after 5 days, 25° C.
Protocol: (§1) Test Examples of the pest control agent thus obtained according to the present invention are shown below. In respective Test Examples, the insecticidal rate (%) was determined by the following calculation equation. Insecticidal rate (%)=(number of dead pests/number of released pests)×100
The emulsifiable concentrate obtained according to Formulation of Formulation Example 2 was diluted with water so as to control the concentration of the compound to 125 ppm. Leaves of corn were immersed in this diluted solution for 30 seconds and then air-dried. The leaves were put in a petri dish on which a filter paper is laid, and then five second instar larvae of rice armyworm were inoculated. After covering the petri dish with a glass lid, the petri dish was placed in a temperature-controlled room at a temperature of 25° C. and a humidity of 65%. After 5 days, life and death were examined and the insecticidal rate was determined. The test was repeated twice.

[2] = test system: Cotton Aphid (Aphis Gossypii); assay: Efficacy test against cotton aphid, spray on cucumber plant; conditions: 125 ppm, emulsifiable concentrate diluted with water, sprayed over cucumber plant with nymphs, after 5 days, 25° C.
Protocol: as §1
The emulsifiable concentrate obtained according to Formulation of Formulation Example 2 was diluted with water so as to control the concentration of the compound to 125 ppm. Adults of cotton aphids were inoculated to a cucumber plant (approximately 10 days after sprouting) sown in a 3 sun/size pot (9 cm). After 1 day, adult aphids were removed and the diluted solution was sprayed over the cucumber plant on which delivered nymphs are parasitic. The pot was placed in a temperature-controlled room at a temperature of 25° C. and a humidity of 65%. After 5 days, life and death were examined and the insecticidal rate was determined. The test was repeated twice.

[3] = test system: Sweetpotato Whitefly (Bemisia Tabaci); assay: Efficacy test against sweetpotato whitefly, sprayed tomato leaf; conditions: 125 ppm, emulsifiable concentrate diluted with water, adults (type B), after 2 days, 25° C.
Protocol: as §1
The emulsifiable concentrate obtained according to Formulation of Formulation Example 2 was diluted with water so as to control the concentration of the compound to 125 ppm. The diluted solution was sprayed over a tomato leaf obtained by cutting and then air-dried. Using absorbent cotton, the leaf was fixed to a flask so that a front surface of the leaf faces upward. Seven pairs of adults of sweetpotato whitefly (type B) were inoculated in this container, and the container was placed in a temperature-controlled room at a temperature of 25° C. and a humidity of 65%. After 2 days, life and death were examined and the insecticidal rate was determined. The test was repeated twice.

[4] = test system: Twospotted Spider Mite (Tetranychus Urticae Koch); assay: Efficacy test against twospotted spider mite, spray on kidney bean plant; conditions: 125 ppm, wettable powder diluted with water, sprayed, female adults with resistance to an organophosphorus agent on kidney bean, after 3 days
Protocol: The wettable powder obtained according to Formulation of Formulation Example 1 was diluted with water so as to control the concentration of the compound to 125 ppm. Seventeen female adults of twospotted spider mite with resistance to an organophosphorus agent were inoculated on a first true leaf of a kidney bean plant (approximately 7 to 10 days after sprouting) sown in a 3 sun/size pot (9 cm). The diluted solution was sprayed. The pot was placed in a temperature-controlled room at a temperature of 25° C. and a humidity of 65%. After 3 days, the adulticidal rate was examined. The test was repeated twice.

C=C1SC(=Nc2ccc(C)cc2)C(=CSc2cccc(F)c2)CC1(C)C (mixture of isomers) [Compound 2-84]
100%: insecticidal rate [1] | insecticidal rate [2] | insecticidal rate [3] | adulticidal rate [4]

C=C1SC(=Nc2ccc(C)cc2)C(=CSc2ccccc2F)CC1(C)C (mixture of isomers) [Compound 2-85]
100%: insecticidal rate [1] | insecticidal rate [2] | insecticidal rate [3] | adulticidal rate [4]

C=C1SC(=Nc2ccc(C)cc2)C(=CSc2ccc(C)cc2)CC1(C)C (mixture of isomers) [Compound 2-86]
100%: insecticidal rate [1] | insecticidal rate [2] | insecticidal rate [3] | adulticidal rate [4]

C=C1SC(=Nc2ccc(C)cc2)C(=CSc2ccc(Cl)cc2)CC1(C)C (mixture of isomers) [Compound 2-87]
100%: insecticidal rate [1] | insecticidal rate [2] | insecticidal rate [3] | adulticidal rate [4]

C=C1SC(=Nc2ccc(C)cc2)C(=CSc2cccc3ccccc23)CC1(C)C (mixture of isomers) [Compound 2-89]
100%: insecticidal rate [1] | insecticidal rate [2] | insecticidal rate [3] | adulticidal rate [4]

CC(C)=C1CCC(=CSc2ccccc2)C(=Nc2ccc(C)cc2)S1 (mixture of isomers) [Compound 6-1]
100%: insecticidal rate [1] | insecticidal rate [2] | insecticidal rate [3] | adulticidal rate [4]

C=C1SC(=Nc2ccc(C)cc2)C(=CSc2ccccc2)CC1c1ccccc1 (racemic) [Compound 2-15]
100%: insecticidal rate [1] | insecticidal rate [2] | insecticidal rate [3] | adulticidal rate [4]

CC(C)=C1CCC(=C\Sc2ccccc2)/C(=N/c2ccc(Cl)cc2)S1 [Compound 2-2, (4-chloro-phenyl)-{6-isopropylidene-3-[1-phenylsulfanyl-(E)-methylidene]-tetrahydro-thiopyran-(2Z)-ylidene}-amine]
100%: insecticidal rate [1] | insecticidal rate [2] | insecticidal rate [3] | adulticidal rate [4]

CC/C=C1/CCC(=C\Sc2ccccc2)/C(=N/c2ccc(Cl)cc2)S1 [Compound 2-3]
100%: insecticidal rate [1] | insecticidal rate [2] | insecticidal rate [3] | adulticidal rate [4]

C=C1CCC(=CSc2ccccc2)C(=Nc2ccc(C)cc2)S1 [Compound 2-4]
100%: insecticidal rate [1] | insecticidal rate [2] | insecticidal rate [3] | adulticidal rate [4]

C=C1CCC(=CSc2ccc(F)cc2)C(=Nc2ccc(C)cc2)S1 [Compound 2-6]
100%: insecticidal rate [1] | insecticidal rate [2] | insecticidal rate [3] | adulticidal rate [4]

C=C1SC(=N\c2ccc(C)cc2)/C(=C/Sc2ccccc2)CC1(C)C [Compound 2-11, {5,5-dimethyl-6-methylene-3-[1-phenylsulfanyl-(E)-methylidene]-tetrahydro-thiopyran-(2Z)-ylidene}-p-tolyl-amine]
100%: insecticidal rate [1] | insecticidal rate [2] | insecticidal rate [3] | adulticidal rate [4]

C=C1SC(=Nc2ccc(Cl)cc2)C(=CSc2ccccc2)CC1(C)C [Compound 2-12]
100%: insecticidal rate [1] | insecticidal rate [2] | insecticidal rate [3] | adulticidal rate [4]

C=C1SC(=Nc2ccc(Cl)cc2)C(=CSc2ccc(F)cc2)CC1(C)C [Compound 2-13]
100%: insecticidal rate [1] | insecticidal rate [2] | insecticidal rate [3] | adulticidal rate [4]

C=C1CCC(=CSc2ccccc2)C(=[NH+]c2ccc(C)cc2)S1.F[B-](F)(F)F [Compound 2-14]
100%: insecticidal rate [1] | insecticidal rate [2] | insecticidal rate [3] | adulticidal rate [4]

C=C1SC(=Nc2ccc(C)cc2)C(=CSc2ccccc2)CC12CCCCC2 [Compound 2-17]
100%: insecticidal rate [1] | insecticidal rate [2] | insecticidal rate [3] | adulticidal rate [4]

C=C1SC(=Nc2ccc(C)cc2)C(=CSc2cccc(OC)c2)CC1(C)C [Compound 2-20]
100%: insecticidal rate [1] | insecticidal rate [2] | insecticidal rate [3] | adulticidal rate [4]

C=C1SC(=Nc2ccc(OC)c(C)c2)C(=CSc2ccccc2)CC1(C)C [Compound 2-34]
100%: insecticidal rate [1] | insecticidal rate [2] | insecticidal rate [3] | adulticidal rate [4]

C=C1SC(=Nc2ccc(Cl)c(Cl)c2)C(=CSc2ccccc2)CC1(C)C [Compound 2-35]
100%: insecticidal rate [1] | insecticidal rate [2] | insecticidal rate [3] | adulticidal rate [4]

C=C1SC(=Nc2cccc(C(F)(F)F)c2)C(=CSc2ccccc2)CC1(C)C [Compound 2-36]
100%: insecticidal rate [1] | insecticidal rate [2] | insecticidal rate [3] | adulticidal rate [4]

C=C1SC(=Nc2ccc(OC)cc2C)C(=CSc2ccccc2)CC1(C)C [Compound 2-40]
100%: insecticidal rate [1] | insecticidal rate [2] | insecticidal rate [3] | adulticidal rate [4]

C=C1SC(=Nc2ccc(OC)cc2)C(=CSc2ccccn2)CC1(C)C [Compound 2-50]
100%: insecticidal rate [2] | insecticidal rate [3] | adulticidal rate [4]

C=C1SC(=Nc2ccc(OC)cc2)C(=CSc2cccs2)CC1(C)C [Compound 2-51]
100%: insecticidal rate [2] | adulticidal rate [4]

C=C1SC(=Nc2ccc(C)cc2)C(=CSc2nccs2)CC1(C)C [Compound 2-73]
100%: insecticidal rate [1] | insecticidal rate [2] | adulticidal rate [4]

C=C1SC(=Nc2ccc(C)cc2)C(=CSc2cccc(C#N)c2)CC1(C)C [Compound 2-106]
100%: insecticidal rate [1] | insecticidal rate [3] | adulticidal rate [4]

C=C1SC(=Nc2ccc(C)cc2)C(=CSc2c(F)cccc2F)CC1(C)C [Compound 2-114]
100%: insecticidal rate [1] | insecticidal rate [3] | adulticidal rate [4]

C=C1SC(=Nc2ccc(C)cc2)C(=CSc2c(C)cccc2C)CC1(C)C [Compound 2-119]
100%: insecticidal rate [1] | insecticidal rate [3] | adulticidal rate [4]

C=C1SC(=Nc2ccc(C)cc2)C(=CSc2ccc(C(C)C)cc2)CC1(C)C [Compound 2-151]
100%: insecticidal rate [1] | insecticidal rate [3] | adulticidal rate [4]
